Tests used:
Assay type in all cases: cell-based
[1] = tested on: Fusarium oxysporum DSM 841; assay: Antifungal microdilution MIC test; conditions: DSM841, comparative test
Procedure: (§1) In vitro tests of the antifungal activity of the polymers were performed with respect to selected fungal species obtained from international culture collections and the microorganism collection in the Department of Infection Control and Mycology, Chair of Microbiology, Jagiellonian University Medical College. The test was performed using the microdilution method in a liquid medium on flat-bottomed, 96-well polypropylene titration plates. The applied methodology was based on antifungal susceptibility testing procedures developed by the European Committee on Antimicrobial Susceptibility Testing (EUCAST) and on the Hancock Lab procedure for antimicrobial cationic peptides.
(§2) The test compounds were dissolved in sterile distilled water and starting concentrations of 5 g/L were prepared, from which a series of two-fold dilutions in water were obtained. Respective polymer dilutions were transferred in a volume of 20 μL on titration plates (wells 1-10). 20 μL of sterile distilled water was transferred to each of wells 11 and 12. Wells 1-11 were inoculated with fungi in a volume of 180 μL of fungal cell suspensions in a liquid medium, and 180 μL of the sterile medium was transferred to well 12. Fungal suspensions were prepared from fresh cultures on agar media by collecting spores using a sterile swab into sterile distilled water or sterile distilled water with Tween-20 added. Suspensions of certain strains were filtered to remove any hyphal elements (filters with a pore diameter of 20 μm and 10 μm were used). The suspensions were brought to a density of 0.5 on the McFarland scale, and subsequently diluted to 1:20 in a liquid RPMI-1640 medium with L-glutamine and without sodium bicarbonate, supplemented with glucose (2%) and buffered morpholinopropanesulfonic acid (MOPS) (0.165 mol/L).
(§3) Final polymer concentrations on plates after adding fungal suspensions in the liquid medium were 0.49-250 mg/L or 0.98-500 mg/L.
(§4) Incubation was performed at room temperature, 27° C., 37° C., depending on the fungal species, until fungal growth was obtained in growth control (well 11). After the incubation period, fungal growth was evaluated visually and the lowest polymer concentrations that caused complete fungal growth inhibition (MIC (minimal inhibitory concentration) values) were determined. […]

[2] = tested on: Candida glabrata ATCC 15545; assay: Antifungal microdilution MIC test; conditions: Nakaseomyces glabratus, ATCC15545, comparative test
Procedure: as §1, §2, §3, §4

Candida krusei ATCC 6258 = assay: Antifungal microdilution MIC test; conditions: Pichia kudriavzevii, ATCC6258, comparative test
Procedure: as §1, §2, §3, §4

Fusarium solani DSM 1164 = assay: Antifungal microdilution MIC test; conditions: DSM1164, comparative test
Procedure: as §1, §2, §3, §4

Fusarium oxysporum 109 = assay: Antifungal microdilution MIC test; conditions: comparative test
Procedure: as §1, §2, §3, §4

[3] = tested on: Fusarium solani strain 155; assay: Antifungal microdilution MIC test; conditions: comparative test
Procedure: as §1, §2, §3
(§5) Incubation was performed at room temperature, 27° C., 37° C., depending on the fungal species, until fungal growth was obtained in growth control (well 11). After the incubation period, fungal growth was evaluated visually and the lowest polymer concentrations that caused complete fungal growth inhibition (MIC (minimal inhibitory concentration) values) were determined.
(§6) A test was performed on selected fungal strains to compare MIC values of the PMAPTAC133 polymer with the MIC values of two known antifungal drugs (terbinafine and ciclopirox), used in the treatment of fungal infections of glabrous skin, hairy skin and nails.
(§7) The procedure described in the section above (Example 8) was used in the testing.
(§8) The drugs were dissolved in dimethyl sulfoxide (DMSO) and starting concentrations of 4 g/L were prepared, from which series of two-fold dilutions in DMSO were obtained. Respective […] concentrations were diluted to 1:100 in sterile water and subsequently transferred to wells 1-10 on a titration plate in a volume of 20 μL. Wells 11 and 12 were filled up with 20 μL DMSO diluted to 1:10 in water. Wells 1-11 were inoculated with fungi in a volume of 180 μL of fungal cell suspensions in a liquid medium, and […] of the sterile medium was transferred to well 12. Final drug concentrations on plates after adding fungal suspensions in the liquid medium were 0.008-4 mg/L.

[4] = tested on: Trichophyton interdigitale D182; assay: Antifungal microdilution MIC test; conditions: comparative test
Procedure: as §1, §2, §3, §5, §6, §7, §8

Trichophyton rubrum D320 = assay: Antifungal microdilution MIC test; conditions: comparative test
Procedure: as §1, §2, §3, §5, §6, §7, §8

[5] = tested on: Aspergillus fumigatus DSM 819; assay: Antifungal microdilution MIC test; conditions: Aspergillus fumigatus, DSM819, comparative test
Procedure: as §1, §2, §3, §5, §6, §7, §8

[6] = tested on: Trichophyton interdigitale 251; assay: Antifungal microdilution MIC test; conditions: comparative test
Procedure: as §1, §2, §3, §5, §6, §7, §8

Trichophyton rubrum D197 = assay: Antifungal microdilution MIC test; conditions: comparative test
Procedure: as §1, §2, §3, §5, §6, §7, §8

[7] = tested on: Trichophyton tonsurans DSM 12285; assay: Antifungal microdilution MIC test; conditions: DSM12285, comparative test
Procedure: as §1, §2, §3, §5, §6, §7, §8

[8] = tested on: Aspergillus flavus ATCC 204304; assay: Antifungal microdilution MIC test; conditions: Aspergillus flavus, ATCC204304, comparative test
Procedure: as §1, §2, §3, §5, §6, §7, §8

[9] = tested on: Trichophyton rubrum DSM 16111; assay: Antifungal microdilution MIC test; conditions: DSM16111, comparative test
Procedure: as §1, §2, §3, §5, §6, §7, §8

Cryptococcus neoformans = assay: Antifungal microdilution MIC test; conditions: comparative test; for MIC: Cryptococcus neoformans
Procedure: as §1, §2, §3, §5, §6, §7, §8

[10] = tested on: Aspergillus brasiliensis ATCC 16404; assay: Antifungal microdilution MIC test; conditions: Aspergillus brasiliensis, ATCC16404, comparative test
Procedure: as §1, §2, §3, §5, §6, §7, §8

[11] = tested on: Trichophyton mentagrophytes ATCC 18484; assay: Antifungal microdilution MIC test; conditions: Trichophyton mentagrophytes, ATCC18484, comparative test
Procedure: as §1, §2, §3, §5, §6, §7, §8

[12] = tested on: Trichophyton tonsurans 264; assay: Antifungal microdilution MIC test; conditions: comparative test
Procedure: as §1, §2, §3, §5, §6, §7, §8

[13] = tested on: Trichophyton interdigitale DSM4167; assay: Antifungal microdilution MIC test; conditions: comparative test
Procedure: as §1, §2, §3, §5, §6, §7, §8

[14] = tested on: Candida albicans ATCC 90028; assay: Antifungal microdilution MIC test; conditions: ATCC90028, comparative test
Procedure: as §1, §2, §3, §5, §6, §7, §8

[15] = tested on: Scopulariopsis brevicaulis 34; assay: Antifungal microdilution MIC test; conditions: comparative test
Procedure: as §1, §2, §3, §5, §6, §7, §8

[16] = tested on: Aspergillus terreus DSM 1958; assay: Antifungal microdilution MIC test; conditions: Aspergillus terreus, DSM1958, comparative test
Procedure: as §1, §2, §3, §5, §6, §7, §8

[17] = tested on: Scopulariopsis brevicaulis DSM 9122; assay: Antifungal microdilution MIC test; conditions: DSM9122, comparative test
Procedure: as §1, §2, §3, §5, §6, §7, §8

[18] = tested on: Aspergillus fumigatus SU 56; assay: Antifungal microdilution MIC test; conditions: Aspergillus fumigatus, SU56, comparative test
Procedure: as §1, §2, §3, §5, §6, §7, §8

[19] = tested on: 3T3-L1 murine embryonic fibroblast line; assay: Neutral red uptake toxicity test, 3T3-L1 fibroblasts; conditions: medium with serum, 24 h exposure
Procedure: Preliminary tests were conducted in the 3T3-L1 murine embryonic fibroblast line (ATCC, CL-173™), an immortalized line (highly tolerant cells). DMEM was used as the medium. 24 h after seeding and successful adhesion, polymers dissolved in the medium were added to the cells (the medium was first replaced with a serum-free medium in serum-free experiments), and viable cells were quantified after another 24 h using the neutral red uptake assay.
The toxicity of ciclopirox and terbinafine, two commercially used antifungal drugs, was evaluated in similar conditions (the same cell line, medium composition and exposure time).

HaCaT cell line = assay: Neutral red uptake toxicity test, HaCaT keratinocytes; conditions: human, 24 h, 5 μg/mL
Procedure: The testing was performed in the HaCaT cell line, a nontumorigenic, immortalized human keratinocyte line. The DMEM medium was used in the culture, including a modification with 10% fetal bovine serum added. 24 h after seeding and successful adhesion, the polymer dissolved in the medium was added to the cells (the medium was first replaced with a serum-free medium in serum-free experiments), and viable cells were quantified after another 24 h using the neutral red uptake assay.
The toxicity of terbinafine and ciclopirox, two commercially used antifungal drugs, was evaluated in similar conditions (the same cell line, medium composition and exposure time). As for ciclopirox, the serum-free medium was not used because the drug strongly interacts with serum and testing in a serum-free medium would have been unreliable. The results are shown in graphs in FIG. 8 and FIG. 9.

In the case of `Cc1cc(C2CCCCC2)n(O)c(=O)c1` [Ciclopirox, ciclopirox], the MIC ([1]; incubation time 24 h) is reported as over 4 µg/mL, the MIC ([1]; incubation time 48 h) is reported as over 4 µg/mL and the MIC ([2]; incubation time 24 h) is reported as over 4 µg/mL. The MIC ([2]; incubation time 48 h) was over 4 µg/mL, the MIC (Candida krusei ATCC 6258; incubation time 24 h) was over 4 µg/mL and the MIC (Candida krusei ATCC 6258; incubation time 48 h) was over 4 µg/mL. It also gave an MIC (Fusarium solani DSM 1164; incubation time 24 h) of over 4 µg/mL, an MIC (Fusarium solani DSM 1164; incubation time 48 h) of over 4 µg/mL and an MIC (Fusarium oxysporum 109; incubation time 24 h) of over 4 µg/mL. For the same compound, the MIC (Fusarium oxysporum 109; incubation time 48 h) was over 4 µg/mL, the MIC ([3]; incubation time 24 h) was over 4 µg/mL and the MIC ([3]; incubation time 48 h) was over 4 µg/mL. For the same compound, the MIC ([4]; incubation time 24 h) was over 4 µg/mL, the MIC ([4]; incubation time 48 h) was over 4 µg/mL and the MIC ([4]; incubation time 72 h) was over 4 µg/mL. For the same compound, the MIC (Trichophyton rubrum D320; incubation time 24 h) was over 4 µg/mL, the MIC (Trichophyton rubrum D320; incubation time 48 h) was over 4 µg/mL and the MIC (Trichophyton rubrum D320; incubation time 72 h) was over 4 µg/mL. It also gave an MIC ([5]; incubation time 24 h) of over 4 µg/mL, an MIC ([5]; incubation time 48 h) of over 4 µg/mL and an MIC ([6]; incubation time 24 h) of over 4 µg/mL. The MIC ([6]; incubation time 48 h) was over 4 µg/mL, the MIC ([6]; incubation time 72 h) was over 4 µg/mL and the MIC (Trichophyton rubrum D197; incubation time 48 h) was over 4 µg/mL. The MIC (Trichophyton rubrum D197; incubation time 72 h) was over 4 µg/mL, the MIC ([7]; incubation time 48 h) was over 4 µg/mL and the MIC ([7]; incubation time 72 h) was over 4 µg/mL. For the same compound, the MIC ([8]; incubation time 24 h) was over 4 µg/mL, the MIC ([8]; incubation time 48 h) was over 4 µg/mL and the MIC ([9]; incubation time 24 h) was over 4 µg/mL. It also gave an MIC ([9]; incubation time 48 h) of over 4 µg/mL, an MIC ([9]; incubation time 72 h) of over 4 µg/mL and an MIC (Cryptococcus neoformans; incubation time 24 h) of over 4 µg/mL. For the same compound, the MIC (Cryptococcus neoformans; incubation time 48 h) was over 4 µg/mL, the “concentration with slight growth suppression” value (Cryptococcus neoformans; incubation time 24 h) was over 4 slight mg/L and the MIC ([10]; incubation time 24 h) was over 4 µg/mL. For the same compound, the MIC ([10]; incubation time 48 h) was over 4 µg/mL, the MIC ([11]; incubation time 24 h) was over 4 µg/mL and the MIC ([11]; incubation time 48 h) was over 4 µg/mL. It also gave an MIC ([11]; incubation time 72 h) of over 4 µg/mL, an MIC ([12]; incubation time 48 h) of over 4 µg/mL and an MIC ([12]; incubation time 72 h) of over 4 µg/mL. For the same compound, the MIC ([13]; incubation time 24 h) was over 4 µg/mL, the MIC ([13]; incubation time 48 h) was over 4 µg/mL and the MIC ([13]; incubation time 72 h) was over 4 µg/mL. For the same compound, the MIC ([14]; incubation time 24 h) was over 4 µg/mL, the MIC ([14]; incubation time 48 h) was over 4 µg/mL and the MIC ([15]; incubation time 24 h) was over 4 µg/mL. The MIC ([15]; incubation time 48 h) was over 4 µg/mL, the MIC ([16]; incubation time 24 h) was over 4 µg/mL and the MIC ([16]; incubation time 48 h) was over 4 µg/mL. The MIC ([17]; incubation time 24 h) was over 4 µg/mL, the MIC ([17]; incubation time 48 h) was over 4 µg/mL and the MIC ([18]; incubation time 24 h) was over 4 µg/mL. For the same compound, the MIC ([18]; incubation time 48 h) was over 4 µg/mL, the “concentration at which the number of viable cells decreased to less than 50%” value [19] was at least 5000 ng/mL and the “reduction of viable keratinocyte cells compared to the control” value (HaCaT cell line) was 30%.
